Consider 20 molecules from patent US12624004B2 (Fudan University, priority 2019, dated 2026).

The structures appear in SMILES notation. Where a name gives a salt, the structure may show the parent alone. Read-outs that look alike come from different tables or passages of the source. Bounds are passed on as bounds.

As usually defined, the Ki is the equilibrium dissociation constant of an inhibitor or competing ligand from its target. A word on the ED50: it is the midpoint of the dose-response relation.

One assay has as its target T1, μ opioid receptor (Homo sapiens, UniProt P35372).
T1 construct: expressed in transfected cells; host or cells: CHO cells (membranes)
The assay can be described thus: Competition binding assay on membranes of CHO cells expressing μ opioid receptor, [3H]-labeled ligand. The conditions noted are these: for Ki: read-out: μOR Ki. In outline: (§1)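 CHO membranes (20–30 μg protein) incubated with [3H]-labeled ligand at 1–2 nM and test compounds, 30 min at 30° C; nonspecific binding with 1 μM corresponding ligand. Filtered on GF/C, washed with 50 mM Tris-HCl pH 7.4, scintillation-counted. IC50 converted to Ki by Ki=IC50/(1+[L]/Kd).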

Another assay concerns the target T2, δ opioid receptor (Homo sapiens, UniProt P41143).
T2 construct: expressed in transfected cells; host or cells: CHO cells (membranes)
The assay can be described thus: Competition binding assay on membranes of CHO cells expressing δ opioid receptor, [3H]-labeled ligand. The following applies: for inhibition at 1 µM: 0.5 h; for Ki: read-out: δOR Ki. In outline: as §1

In a further assay the target is T3, κ opioid receptor (Homo sapiens, UniProt P41145).
T3 construct: expressed in transfected cells; host or cells: CHO cells (membranes)
Kind of assay: Competition binding assay on membranes of CHO cells expressing κ opioid receptor, [3H]-labeled ligand. The conditions noted are these: for inhibition at 1 µM: 0.5 h; for Ki: read-out: κOR Ki. Summed up: as §1

The test system of the next assay is Female mice. Kind of assay: In vivo hot plate method analgesia test. The conditions noted are these: intraperitoneal; for Maximum percentage effective analgesia (% MPE): Table 5-2, hot plate 55° C.; for Maximum percentage effective analgesia (% MPE) / % MPE @ 10 mg/kg: 10 mg/kg dose; for ED50: Mus musculus, ip, Table 3-2, hot plate; for % MPE @ 10 mg/kg: Table 3-2, hot plate 55° C. In outline: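 Female mice (~20 g) on a 55° C hot plate, hindpaw response latency as pain threshold (pre-screen 5–30 s, 60 s cut-off). Latencies at 15, 30, 60 and 120 min after intraperitoneal dosing. %MPE = (post−pre latency)/(60−pre)×100, ED50 derived from %MPE.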

Where [1] appears, read: 0.5 h, Table 5-1, 1 μM concentration of compound, read-out: μOR Combination rate (%).
The mark [2] stands for this setting: Table 5-1, 1 μM concentration of compound, read-out: δOR Combination rate (%).
Where [3] appears, read: Table 5-1, 1 μM concentration of compound, read-out: κOR Combination rate (%).
Setting [4] is: Table 3-1, 1 μM concentration of compounds, read-out: μOR Binding rate (%).
The mark [5] stands for this setting: Table 3-1, 1 μM concentration of compounds, read-out: δOR Binding rate (%).
[6] abbreviates: Table 3-1, 1 μM concentration of compounds, read-out: κOR Binding rate (%).

Consider `COc1cccc(C2(O)CCN(C(=O)Cc3ccc(Cl)cc3)CC2CN(C)C)c1.Cl` (centres unmarked) [FWBE19, 2-(4-Chlorophenyl)-1-(3-((dimethylamino)methyl)-4-hydroxy-4-(3-methoxyphenyl)piperidin-1-yl)ethyl-1-one hydrochloride], for which the inhibition at 1 µM came out at 25.2 ± 5.2% at μ opioid receptor (setting [1]), 0% on δ opioid receptor (setting [2]) and 39.4 ± 4.5% at κ opioid receptor (setting [3]). In addition, in the assay on Female mice, the “Maximum percentage effective analgesia (% MPE)” value is on record as 73.98%.

For `COc1cccc(C2(O)CCN(C(=O)Cc3cccc(C#N)c3)CC2CN(C)C)c1.Cl` (centres unmarked) [FWBE21, 3-(2-(3-((Dimethylamino)methyl)-4-hydroxy-4-(3-methoxyphenyl)piperidin-1-yl)-2-oxoethyl) benzonitrile hydrochloride], the inhibition at 1 µM at μ opioid receptor (setting [1]) came to 28.9 ± 17%; on δ opioid receptor (setting [2]), 25.4 ± 4.4%; at κ opioid receptor (setting [3]) it was 42.3 ± 3.3%. For the same molecule, the “Maximum percentage effective analgesia (% MPE)” value in the assay with Female mice is recorded as 67.09%.

Regarding `COc1cccc(C2(O)CCN(C(=O)Cc3cccc([N+](=O)[O-])c3)CC2CN(C)C)c1.Cl` (centres unmarked) [FWBE22, 1-(3-((Dimethylamino)methyl)-4-hydroxy-4-(3-methoxyphenyl)piperidin-1-yl)-2-(3-nitrophenyl) ethyl-1-one hydrochloride], the Ki was 0.0856 ± 0.0154 µM at μ opioid receptor (Table 5-1), more than 10 µM at δ opioid receptor (Table 5-1) and 1.99 ± 0.145 µM at κ opioid receptor (Table 5-1). For the same molecule, in the assay with Female mice, the “Maximum percentage effective analgesia (% MPE)” value is reported as 72.88%.

Turning to `COc1cccc(C2(O)CCN(C(=O)C(C)(C)c3ccccc3)CC2CN(C)C)c1.Cl` (centres unmarked) [FWBE23, 1-(3-((Dimethylamino)methyl)-4-hydroxy-4-(3-methoxyphenyl)piperidin-1-yl)-2-methyl-2-phenylpropan-1-one hydrochloride], the Ki came to 0.0526 ± 0.00383 µM at μ opioid receptor (Table 5-1), 0.688 ± 0.54 µM at δ opioid receptor (Table 5-1) and 0.0444 ± 0.00096 µM at κ opioid receptor (Table 5-1). In the assay with Female mice, the “Maximum percentage effective analgesia (% MPE)” value came out at 33.72%.

With `COc1cccc(C2(O)CCN(C(=O)C3(c4ccccc4)CC3)CC2CN(C)C)c1.Cl` (centres unmarked) [FWBE24, (3-((Dimethylamino)methyl)-4-hydroxy-4-(3-methoxyphenyl)piperidin-1-yl)(1-phenylcyclopropyl)methanone hydrochloride], the Ki at μ opioid receptor (Table 5-1) came to 0.06715 ± 8e-05 µM; on δ opioid receptor (Table 5-1), 0.848 ± 0.529 µM; at κ opioid receptor (Table 5-1), 0.0339 ± 0.00092 µM. Moreover, in the assay with Female mice, the “Maximum percentage effective analgesia (% MPE)” value is 29.85%.

For `COc1cccc(C2(O)CCN(C(=O)C3(c4ccccc4)CCC3)CC2CN(C)C)c1.Cl` (centres unmarked) [FWBE25, (3-((Dimethylamino)methyl)-4-hydroxy-4-(3-methoxyphenyl)piperidin-1-yl)(1-phenylcyclobutyl) methanone hydrochloride], the figures for the Ki at μ opioid receptor (Table 5-1), on δ opioid receptor (Table 5-1) and on κ opioid receptor (Table 5-1) were 0.0809 ± 0.00567 µM, 0.717 ± 0.253 µM and 0.205 ± 0.0409 µM, respectively. Besides, the “Maximum percentage effective analgesia (% MPE)” value in the assay on Female mice turned out to be 5.03%.

In the case of `COc1cccc(C2(O)CCN(C(=O)C3(c4ccccc4)CCCC3)CC2CN(C)C)c1.Cl` (centres unmarked) [FWBE26, (3-((Dimethylamino)methyl)-4-hydroxy-4-(3-methoxyphenyl)piperidin-1-yl)(1-phenylcyclopentyl) methanone hydrochloride], the figures for the Ki at μ opioid receptor (Table 5-1), at δ opioid receptor (Table 5-1) and at κ opioid receptor (Table 5-1) were 0.07372 ± 0.00032 µM, 1.64 ± 1.16 µM and 0.0326 ± 0.00435 µM, respectively. In the assay on Female mice, the “Maximum percentage effective analgesia (% MPE)” value was found to be 52.96%.

For the molecule `COc1cccc(C2(O)CCN(C(=O)C3(c4ccccc4)CCCCC3)CC2CN(C)C)c1.Cl` (centres unmarked) [FWBE27, (3-((Dimethylamino)methyl)-4-hydroxy-4-(3-methoxyphenyl)piperidin-1-yl)(1-phenylcyclohexyl) methanone hydrochloride], the figures for the Ki at μ opioid receptor (Table 5-1) and on κ opioid receptor (Table 5-1) were 0.0516 ± 0.00224 µM and 0.0307 ± 0.00096 µM, respectively. Also, the inhibition at 1 µM at δ opioid receptor (setting [2]) is 93.6 ± 1.08%. In addition, the “Maximum percentage effective analgesia (% MPE)” value in the assay with Female mice was found to be 61.21%.

Regarding `COc1cccc(C2(O)CCN(C(=O)Nc3ccccc3)CC2CN(C)C)c1.Cl` (centres unmarked) [FWBF1, 3-((Dimethylamino)methyl)-4-hydroxy-4-(3-methoxyphenyl)-N-phenylpiperidine-1-carboxamide hydrochloride], the Ki on μ opioid receptor (Table 3-1) is 0.0073 ± 0.0005 µM; on δ opioid receptor (Table 3-1), 0.849 ± 0.0966 µM; at κ opioid receptor (Table 3-1) it was 0.0491 ± 0.0069 µM. The molecule also yielded a 50% effective dose (ED50) with Female mice of 2.75 mg/kg.

As to `COc1cccc(C2(O)CCN(C(=O)Nc3cccc(Cl)c3)CC2CN(C)C)c1.Cl` (centres unmarked) [FWBF2, N-(3-Chlorophenyl)-3-((dimethylamino)methyl)-4-hydroxy-4-(3-methoxyphenyl)piperidine-1-carboxamide hydrochloride], the values for the Ki on μ opioid receptor (Table 3-1), on δ opioid receptor (Table 3-1) and on κ opioid receptor (Table 3-1) were 0.0141 ± 0.0027 µM, 0.537 ± 0.0693 µM and 0.719 ± 0.197 µM, respectively. Besides, in the assay on Female mice, the “% MPE @ 10 mg/kg” value is reported as 21.27%.

`COc1cccc(C2(O)CCN(C(=O)N(C)c3cccc(Cl)c3)CC2CN(C)C)c1.Cl` (centres unmarked) [FWBF3, N-(3-Chlorophenyl)-3-((dimethylamino)methyl)-4-hydroxy-4-(3-methoxyphenyl)-N-methylpiperidine-1-carboxamide hydrochloride]: the inhibition at 1 µM was found to be 8.7 ± 3.7% at μ opioid receptor (setting [4]), 0% at δ opioid receptor (setting [5]) and 14 ± 9.7% on κ opioid receptor (setting [6]). Besides, in the assay with Female mice, the “% MPE @ 10 mg/kg” value turned out to be 3.36%.

Take `COc1cccc(C2(O)CCN(C(=O)Nc3ccc(Cl)cc3)CC2CN(C)C)c1.Cl` (centres unmarked) [FWBF4, N-(4-Chlorophenyl)-3-((dimethylamino)methyl)-4-hydroxy-4-(3-methoxyphenyl)piperidine-1-carboxamide hydrochloride]: the inhibition at 1 µM is 48.8 ± 3.9% at μ opioid receptor (setting [4]), 0% on δ opioid receptor (setting [5]) and 22.1 ± 10.7% on κ opioid receptor (setting [6]). Moreover, in the assay with Female mice, the “% MPE @ 10 mg/kg” value was 68.95%.

With `COc1cccc(C2(O)CCN(C(=O)Nc3ccc(Cl)c(Cl)c3)CC2CN(C)C)c1.Cl` (centres unmarked) [FWBF5, N-(3,4-dichlorophenyl)-3-((dimethylamino)methyl)-4-hydroxy-4-(3-methoxyphenyl)piperidine-1-carboxamide hydrochloride], the values for the inhibition at 1 µM on μ opioid receptor (setting [4]), at δ opioid receptor (setting [5]) and on κ opioid receptor (setting [6]) were 46 ± 5.4%, 0% and 18.2 ± 1.9%, respectively. In addition, the “% MPE @ 10 mg/kg” value in the assay on Female mice is reported as 25.42%.

As for `COc1cccc(C2(O)CCN(C(=O)Nc3cc(Cl)c(Cl)c(Cl)c3)CC2CN(C)C)c1` (centres unmarked) [FWBF6, 3-((Dimethylamino)methyl)-4-hydroxy-4-(3-methoxyphenyl)-N-(3,4,5-trichlorophenyl) piperidine-1-carboxamide hydrochloride], the results for the inhibition at 1 µM at μ opioid receptor (setting [4]), on δ opioid receptor (setting [5]) and at κ opioid receptor (setting [6]) were 13.2 ± 8%, 0% and 0%, respectively. Moreover, the “% MPE @ 10 mg/kg” value with Female mice is 4.54%.

Turning to `COc1cccc(C2(O)CCN(C(=O)Nc3cccc(F)c3)CC2CN(C)C)c1` (centres unmarked) [FWBF7, 3-((Dimethylamino)methyl)-N-(3-fluorophenyl)-4-hydroxy-4-(3-methoxyphenyl)piperidine-1-carboxamide hydrochloride], the inhibition at 1 µM on μ opioid receptor (setting [4]) came out at 36.7 ± 7.4%; at δ opioid receptor (setting [5]) it was 9.2 ± 7.8%; on κ opioid receptor (setting [6]), 0%. Besides, the 50% effect level in the assay on Female mice (ED50) was put at a dose of 4.12 mg/kg.

With `COc1cccc(C2(O)CCN(C(=O)Nc3ccc(F)c(F)c3)CC2CN(C)C)c1.Cl` (centres unmarked) [FWBF8, N-(3,4-difluorophenyl)-3-((dimethylamino)methyl)-4-hydroxy-4-(3-methoxyphenyl)piperidine-1-carboxamide hydrochloride], the inhibition at 1 µM on μ opioid receptor (setting [4]) is 13.6 ± 13.1%; on δ opioid receptor (setting [5]), 16.4 ± 10.6%; at κ opioid receptor (setting [6]), 0%. Moreover, the “% MPE @ 10 mg/kg” value with Female mice worked out at 21.76%.

With `COc1cccc(C2(O)CCN(C(=O)Nc3ccc(F)c(Cl)c3)CC2CN(C)C)c1` (centres unmarked) [FWBF9, N-(3-chloro-4-fluorophenyl)-3-((dimethylamino)methyl)-4-hydroxy-4-(3-methoxyphenyl) piperidine-1-carboxamide hydrochloride], the inhibition at 1 µM at μ opioid receptor (setting [4]) is 25 ± 13.3%; at δ opioid receptor (setting [5]), 21.6 ± 13.4%; at κ opioid receptor (setting [6]) it was 7.1 ± 5%. Also, the “% MPE @ 10 mg/kg” value in the assay with Female mice was 18.15%.

For the molecule `COc1cccc(C2(O)CCN(C(=O)Nc3cc(C(F)(F)F)cc(C(F)(F)F)c3)CC2CN(C)C)c1.Cl` (centres unmarked) [FWBF10, N-(3,5-Bis(trifluoromethyl)phenyl)-3-((dimethylamino)methyl)-4-hydroxy-4-(3-methoxyphenyl) piperidine-1-carboxamide hydrochloride], the inhibition at 1 µM at μ opioid receptor (setting [4]) turned out to be 0%; at δ opioid receptor (setting [5]), 0.9%; on κ opioid receptor (setting [6]) it was 8.6 ± 4.8%. Further, the “% MPE @ 10 mg/kg” value with Female mice was 7.74%.

On to `COc1cccc(C2(O)CCN(C(=O)Nc3ccc4ccccc4c3)CC2CN(C)C)c1` (centres unmarked) [FWBF11, 3-((Dimethylamino)methyl)-4-hydroxy-4-(3-methoxyphenyl)-N-(naphthalen-2-yl)piperidine-1-carboxamide hydrochloride], for which the inhibition at 1 µM is 0.5% on μ opioid receptor (setting [4]), 0% at δ opioid receptor (setting [5]) and 3.9% at κ opioid receptor (setting [6]). The “% MPE @ 10 mg/kg” value in the assay with Female mice was found to be 4.41%.

For the molecule `COc1cccc(C2(O)CCN(C(=O)NCc3ccccc3)CC2CN(C)C)c1` (centres unmarked) [FWBF12, N-Benzyl-3-((dimethylamino)methyl)-4-hydroxy-4-(3-methoxyphenyl)piperidine-1-carboxamide hydrochloride], the inhibition at 1 µM at μ opioid receptor (setting [4]) amounted to 35.1 ± 4.4%; on δ opioid receptor (setting [5]) it was 2.6 ± 2.9%; on κ opioid receptor (setting [6]), 5.1 ± 4%. Further, in the assay with Female mice, the “% MPE @ 10 mg/kg” value is given as 15.07%.
